Values of other authors in patent EP3815682A1, “A PERK KINASE INHIBITOR FOR TREATING DISEASES ASSOCIATED WITH ENDOPLASMIC RETICULUM STRESS” (Uniwersytet Medyczny w Lodzi, priority 2019, dated 2021).

Key:
pancreatic cells [1] = test system: pancreatic cells
[2] = target: T1, PERK kinase and eIF2α protein phosphorylation (Homo sapiens, UniProt Q9NZJ5); settings: Atkins et al.
T1 sequence (Q9NZJ5 30-1116): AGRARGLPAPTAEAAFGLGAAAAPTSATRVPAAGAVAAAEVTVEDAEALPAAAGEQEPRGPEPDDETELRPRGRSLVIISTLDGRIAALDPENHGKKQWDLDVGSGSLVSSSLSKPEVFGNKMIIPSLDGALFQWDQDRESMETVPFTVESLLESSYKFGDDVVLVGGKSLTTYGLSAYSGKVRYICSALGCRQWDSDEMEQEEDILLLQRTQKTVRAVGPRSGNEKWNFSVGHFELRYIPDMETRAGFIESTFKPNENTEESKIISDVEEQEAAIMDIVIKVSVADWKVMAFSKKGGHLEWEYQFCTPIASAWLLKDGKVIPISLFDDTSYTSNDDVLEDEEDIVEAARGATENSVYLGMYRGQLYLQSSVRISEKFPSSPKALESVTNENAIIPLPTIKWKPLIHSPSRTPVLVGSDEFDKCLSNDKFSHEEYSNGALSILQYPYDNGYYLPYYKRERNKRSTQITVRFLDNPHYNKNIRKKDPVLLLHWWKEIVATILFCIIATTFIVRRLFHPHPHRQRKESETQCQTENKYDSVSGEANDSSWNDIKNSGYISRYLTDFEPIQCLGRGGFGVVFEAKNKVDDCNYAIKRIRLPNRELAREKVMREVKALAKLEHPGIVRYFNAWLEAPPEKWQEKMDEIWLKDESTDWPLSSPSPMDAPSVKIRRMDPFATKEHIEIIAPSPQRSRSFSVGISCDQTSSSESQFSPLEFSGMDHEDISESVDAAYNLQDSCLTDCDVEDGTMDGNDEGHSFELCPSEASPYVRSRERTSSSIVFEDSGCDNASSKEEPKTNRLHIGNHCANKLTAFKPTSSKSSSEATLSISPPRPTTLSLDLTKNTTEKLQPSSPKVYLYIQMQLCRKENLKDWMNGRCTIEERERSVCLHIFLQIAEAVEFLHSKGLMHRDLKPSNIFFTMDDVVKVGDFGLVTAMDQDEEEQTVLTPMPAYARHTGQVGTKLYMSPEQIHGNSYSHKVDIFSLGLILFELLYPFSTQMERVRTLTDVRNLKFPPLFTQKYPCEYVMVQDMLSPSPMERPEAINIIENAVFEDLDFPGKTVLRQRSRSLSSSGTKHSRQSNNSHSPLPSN

pancreatic cells [3] = settings: reason for not entering clinical trials
[4] = not told
[5] = animals administered the inhibitor

In the case of `Cn1cc(-c2ccc3c(c2)CCN3C(=O)Cc2cccc(C(F)(F)F)c2)c2c(N)ncnc21` [GSK2606414], the “level of phosphorylated forms of PERK and eIF2α” value (PERK and eIF2α; compared with mice not administered the inhibitor) is listed as “substantially lower”, the “protein synthesis in cells” value (PERK and eIF2α; mouse, in vivo) is listed as “temporary restoration of protein synthesis” and the glycemia (pancreatic cells [1]; [5]) is listed as “hyperglycemia”. For the same compound, the weight (pancreatic cells [1]; [5]) was “significant weight loss” and the “effect on pancreatic cells” value (pancreatic cells [1]; mice) was “cytotoxic effect”.

For `Cc1cccc(CC(=O)N2CCc3c2ccc(-c2cn(C)c4ncnc(N)c24)c3F)n1` [GSK2656157], the “inhibition of PERK kinase and eIF2α protein phosphorylation” value [2] is given as “effective inhibition” and the “activity on pancreatic cells” value (pancreatic cells [3]) is given as “non-selective activity also on pancreatic cells”.

In the case of `O=C(COc1ccc(Cl)cc1)NC1CCC(NC(=O)COc2ccc(Cl)cc2)CC1` (stereo not shown) [ISRIB], the “permeability of the blood-brain barrier” value [4] is given as “good permeability”.

In the case of `O=C(/C=C/c1ccccc1)NC(NC(=S)Nc1cccc2cccnc12)C(Cl)(Cl)Cl` (stereo not shown) [Salubrinal], the survival (eIF2α phosphorylation; compared with animals that did not receive the compound) is given as “died quicker” and the eIF2α phosphorylation (eIF2α phosphorylation; mouse, in vivo) is given as “increase”.
